Format in all cases: cell-based
The target of data set [1] is T1, Human Nav1.8 (Homo sapiens, UniProt Q9Y5Y9).
T1 construct: expressed in transfected cells; host or cells: HEK293
The experiment in a line: VIPR Assay for Nav1.8 Compounds (FRET membrane potential, deltamethrin opener). The settings on record: VIPR FRET membrane potential assay, deltamethrin opener; average of replicates; read-out: Nav1.8 IC50.

Data set [2] deals with T2, Human Nav1.5 (Homo sapiens, UniProt Q14524).
T2 construct: expressed in transfected cells; host or cells: HEK293
T2 sequence (Q14524 whole entry): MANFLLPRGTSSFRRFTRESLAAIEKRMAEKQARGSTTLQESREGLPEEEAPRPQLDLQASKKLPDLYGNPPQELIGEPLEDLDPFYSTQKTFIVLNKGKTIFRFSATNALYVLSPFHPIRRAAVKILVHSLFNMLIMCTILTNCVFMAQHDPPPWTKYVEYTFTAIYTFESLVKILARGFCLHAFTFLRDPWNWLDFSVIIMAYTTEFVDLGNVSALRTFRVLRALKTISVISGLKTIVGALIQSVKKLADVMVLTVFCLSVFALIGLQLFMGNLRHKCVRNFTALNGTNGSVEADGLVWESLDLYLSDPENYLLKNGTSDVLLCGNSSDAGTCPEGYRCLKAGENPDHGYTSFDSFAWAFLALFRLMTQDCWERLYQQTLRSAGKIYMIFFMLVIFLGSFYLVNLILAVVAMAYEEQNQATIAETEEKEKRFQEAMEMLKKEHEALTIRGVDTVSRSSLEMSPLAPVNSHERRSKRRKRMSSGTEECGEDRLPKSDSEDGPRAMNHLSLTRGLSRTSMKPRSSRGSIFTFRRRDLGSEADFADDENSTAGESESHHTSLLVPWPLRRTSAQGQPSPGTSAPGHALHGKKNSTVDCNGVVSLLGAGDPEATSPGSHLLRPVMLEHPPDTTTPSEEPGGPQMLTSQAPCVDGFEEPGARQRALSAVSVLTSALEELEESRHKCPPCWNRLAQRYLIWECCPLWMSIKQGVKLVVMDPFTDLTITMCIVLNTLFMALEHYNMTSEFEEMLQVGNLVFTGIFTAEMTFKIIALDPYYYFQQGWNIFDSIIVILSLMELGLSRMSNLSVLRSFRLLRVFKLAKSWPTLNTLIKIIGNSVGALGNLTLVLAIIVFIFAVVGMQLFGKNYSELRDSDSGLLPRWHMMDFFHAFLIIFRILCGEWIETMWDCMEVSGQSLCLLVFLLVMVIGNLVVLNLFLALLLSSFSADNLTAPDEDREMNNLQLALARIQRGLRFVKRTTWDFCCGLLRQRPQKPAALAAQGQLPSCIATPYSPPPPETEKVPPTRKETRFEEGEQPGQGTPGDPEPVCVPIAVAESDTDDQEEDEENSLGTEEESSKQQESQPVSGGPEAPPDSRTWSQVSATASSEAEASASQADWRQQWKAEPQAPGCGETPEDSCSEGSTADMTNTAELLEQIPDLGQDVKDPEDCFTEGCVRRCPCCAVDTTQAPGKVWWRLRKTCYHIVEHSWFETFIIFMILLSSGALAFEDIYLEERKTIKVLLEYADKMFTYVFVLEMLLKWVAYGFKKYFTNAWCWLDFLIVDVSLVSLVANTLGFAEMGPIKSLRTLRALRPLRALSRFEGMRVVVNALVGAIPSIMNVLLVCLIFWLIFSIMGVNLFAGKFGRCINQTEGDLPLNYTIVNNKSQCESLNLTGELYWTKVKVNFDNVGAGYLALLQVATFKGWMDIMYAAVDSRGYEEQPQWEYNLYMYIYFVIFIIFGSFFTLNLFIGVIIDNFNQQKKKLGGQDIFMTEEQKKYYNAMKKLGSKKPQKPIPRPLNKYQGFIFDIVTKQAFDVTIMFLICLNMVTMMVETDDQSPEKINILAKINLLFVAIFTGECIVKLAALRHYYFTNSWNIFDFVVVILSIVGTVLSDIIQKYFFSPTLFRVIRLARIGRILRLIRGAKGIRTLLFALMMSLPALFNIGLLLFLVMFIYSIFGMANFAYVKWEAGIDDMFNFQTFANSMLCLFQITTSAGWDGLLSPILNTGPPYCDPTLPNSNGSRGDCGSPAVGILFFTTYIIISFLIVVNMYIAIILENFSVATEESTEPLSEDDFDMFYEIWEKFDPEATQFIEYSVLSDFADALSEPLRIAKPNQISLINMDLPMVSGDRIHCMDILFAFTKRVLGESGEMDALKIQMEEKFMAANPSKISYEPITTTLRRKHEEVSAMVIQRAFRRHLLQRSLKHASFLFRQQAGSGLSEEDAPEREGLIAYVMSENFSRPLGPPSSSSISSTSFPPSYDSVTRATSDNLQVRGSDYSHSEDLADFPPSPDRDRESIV
The data set is described as follows: Nav1.5 Assay (VIPR, HEK293 cells). The settings on record: HEK293 cells expressing Human Nav1.5; average of replicates; read-out: Nav1.5 IC50. On the procedure:
The Nav1.5 assay is performed in HEK293 cells expressing Human Nav1.5 in the same way as the Nav1.8 assay.
Where replicate experiments were conducted resulting in multiple sets of data for a test compound, the data presented represent the average value from all replicate experiments.

Data set [3] relates to tetrodotoxin-sensitive voltage-gated sodium channels including NaV1.2, NaV1.3 and NaV1.7. The experiment in a line: TTX-S Assay (VIPR, SHSY-5Y cell line, veratridine opener).
The mark [4] stands for this setting: read-out: TTX-S IC50, veratridine 50 μM opener, average of replicates.

Each structure is given as a SMILES string. Read-outs that look alike come from different tables or passages of the source. Some results are limits rather than exact numbers.

T1 sequence (Q9Y5Y9 whole entry): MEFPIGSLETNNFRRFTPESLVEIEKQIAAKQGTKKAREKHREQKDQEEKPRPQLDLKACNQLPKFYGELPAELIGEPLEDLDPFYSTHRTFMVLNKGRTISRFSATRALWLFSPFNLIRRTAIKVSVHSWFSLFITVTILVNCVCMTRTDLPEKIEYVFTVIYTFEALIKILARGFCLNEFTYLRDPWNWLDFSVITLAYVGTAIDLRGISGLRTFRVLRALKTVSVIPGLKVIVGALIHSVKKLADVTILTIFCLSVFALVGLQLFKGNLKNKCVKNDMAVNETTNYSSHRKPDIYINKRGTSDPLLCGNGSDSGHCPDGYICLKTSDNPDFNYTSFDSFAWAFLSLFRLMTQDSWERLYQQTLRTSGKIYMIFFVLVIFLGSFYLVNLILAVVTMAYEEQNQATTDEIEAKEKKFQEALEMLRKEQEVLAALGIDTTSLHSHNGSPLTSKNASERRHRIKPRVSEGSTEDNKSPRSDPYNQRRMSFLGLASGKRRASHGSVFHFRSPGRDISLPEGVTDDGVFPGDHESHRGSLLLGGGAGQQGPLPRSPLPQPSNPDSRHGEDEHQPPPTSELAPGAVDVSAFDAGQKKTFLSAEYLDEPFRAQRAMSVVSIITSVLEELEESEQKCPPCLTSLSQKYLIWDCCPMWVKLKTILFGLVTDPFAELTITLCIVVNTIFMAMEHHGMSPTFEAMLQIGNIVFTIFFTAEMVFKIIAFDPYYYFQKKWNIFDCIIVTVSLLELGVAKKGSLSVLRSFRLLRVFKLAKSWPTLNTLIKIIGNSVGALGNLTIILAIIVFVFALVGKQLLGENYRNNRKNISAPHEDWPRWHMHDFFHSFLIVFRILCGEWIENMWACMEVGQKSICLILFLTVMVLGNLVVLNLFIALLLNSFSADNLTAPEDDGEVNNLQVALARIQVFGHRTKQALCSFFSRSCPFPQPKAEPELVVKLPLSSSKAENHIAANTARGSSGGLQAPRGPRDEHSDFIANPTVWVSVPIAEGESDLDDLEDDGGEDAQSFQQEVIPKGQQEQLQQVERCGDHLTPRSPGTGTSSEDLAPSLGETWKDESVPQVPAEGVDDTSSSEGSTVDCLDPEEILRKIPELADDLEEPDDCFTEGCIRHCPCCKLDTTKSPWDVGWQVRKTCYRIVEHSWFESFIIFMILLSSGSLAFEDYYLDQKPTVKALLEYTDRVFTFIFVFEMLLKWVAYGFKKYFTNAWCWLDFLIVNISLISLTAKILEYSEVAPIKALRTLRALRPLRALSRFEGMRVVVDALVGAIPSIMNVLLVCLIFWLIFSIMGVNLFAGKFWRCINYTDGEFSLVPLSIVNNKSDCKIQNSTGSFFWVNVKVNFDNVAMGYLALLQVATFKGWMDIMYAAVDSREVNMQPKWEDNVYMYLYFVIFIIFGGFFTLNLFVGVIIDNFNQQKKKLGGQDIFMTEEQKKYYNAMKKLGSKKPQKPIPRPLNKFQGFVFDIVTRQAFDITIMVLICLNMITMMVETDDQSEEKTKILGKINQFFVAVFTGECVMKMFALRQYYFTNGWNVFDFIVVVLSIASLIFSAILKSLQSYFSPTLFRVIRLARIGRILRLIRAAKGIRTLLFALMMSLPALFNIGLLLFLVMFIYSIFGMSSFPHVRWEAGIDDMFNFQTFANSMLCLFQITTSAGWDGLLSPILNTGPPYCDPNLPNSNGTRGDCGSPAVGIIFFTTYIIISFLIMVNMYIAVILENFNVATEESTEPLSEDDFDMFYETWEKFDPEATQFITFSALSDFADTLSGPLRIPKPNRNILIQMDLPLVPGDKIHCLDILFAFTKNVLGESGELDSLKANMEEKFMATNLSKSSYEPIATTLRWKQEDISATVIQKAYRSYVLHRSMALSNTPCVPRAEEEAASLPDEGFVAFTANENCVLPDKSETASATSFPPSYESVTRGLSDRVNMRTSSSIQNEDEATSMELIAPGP

In general, IC50 refers to the concentration needed to halve the response being measured. For `Cn1nccc1C(=O)Nc1ccc(-c2ccc(Cl)cc2Cl)c(N)n1` [Example 15, N-[6-Amino-5-(2,4-dichlorophenyl)pyridin-2-yl]-1-methyl-1H-pyrazole-5-carboxamide], the results for the IC50 in data set [1], in data set [2] and in data set [3] (setting [4]) were 10 µM, 13 µM and 21 µM, respectively.
With `CC(C)n1nccc1C(=O)Nc1ccc(-c2ccccc2OC(F)(F)F)c(N)n1` [Example 68, N-{6-Amino-5-[2-(trifluoromethoxy)phenyl]pyridin-2-yl}-1-isopropyl-1H-pyrazole-5-carboxamide], the figures for the IC50 in data set [1], in data set [2] and in data set [3] (setting [4]) were 3.9 µM, 17 µM and 5 µM, respectively.
As to `COCc1oncc1C(=O)Nc1ccc(-c2ccccc2OC(F)(F)F)c(N)n1` [Example 93], the IC50 is 1.5 µM in data set [1], greater than 32 µM in data set [2] and 7.1 µM in data set [3] (setting [4]).
As to `Cn1nccc1C(=O)Nc1ccc(-c2cc(OC(F)(F)F)ccc2Cl)c(N)n1` [Example 18, N-{6-Amino-5-[2-chloro-5-(trifluoromethoxy)phenyl]pyridin-2-yl}-1-methyl-1H-pyrazole-5-carboxamide], the IC50 in data set [1] stood at 1.6 µM; in data set [2], 8.5 µM; in data set [3] (setting [4]), 1.8 µM.
Take `COCc1cc(C(=O)Nc2ccc(-c3ccccc3Cl)c(N)n2)on1` [Example 95]: the IC50 in data set [1] is greater than 32 µM; in data set [2], greater than 32 µM; in data set [3] (setting [4]), 29 µM.
Take `Cn1nccc1C(=O)Nc1ccc(-c2cccc(F)c2Cl)c(N)n1` [Example 13, N-[6-Amino-5-(2-chloro-3-fluorophenyl)pyridin-2-yl]-1-methyl-1H-pyrazole-5-carboxamide]: the IC50 in data set [1] is 8.8 µM; in data set [2] it was greater than 32 µM; in data set [3] (setting [4]), greater than 32 µM.
Turning to `Cn1nncc1C(=O)Nc1ccc(-c2cc(F)ccc2Cl)c(N)n1` [Example 86, N-[6-Amino-5-(2-chloro-5-fluorophenyl)pyridin-2-yl]-1-methyl-1H-1,2,3-triazole-5-carboxamide], the IC50 in data set [1] was found to be 5.3 µM; in data set [2], 7.5 µM; in data set [3] (setting [4]), 19 µM.
Take `Cc1nocc1C(=O)Nc1ccc(-c2ccccc2C(F)F)c(N)n1` [Example 42, N-[6-Amino-5-[2-(difluoromethyl)phenyl]pyridin-2-yl]-3-methylisoxazole-4-carboxamide]: the IC50 is 2.5 µM in data set [1], greater than 32 µM in data set [2] and 22 µM in data set [3] (setting [4]).
Take `Cn1nccc1C(=O)Nc1ccc(-c2ccccc2C(F)(F)F)c(N)n1` [Example 14, N-{6-Amino-5-[2-(trifluoromethyl)phenyl]pyridin-2-yl}-1-methyl-1H-pyrazole-5-carboxamide]: the figures for the IC50 in data set [1], in data set [2] and in data set [3] (setting [4]) were 8.4 µM, greater than 32 µM and greater than 32 µM, respectively.
Take `COc1cc(Cl)c(Cl)c(-c2ccc(NC(=O)c3cnnn3C)nc2N)c1` [Example 81, N-[6-Amino-5-(2,3-dichloro-5-methoxyphenyl)pyridin-2-yl]-1-methyl-1H-1,2,3-triazole-5-carboxamide]: the IC50 in data set [1] was determined as 1.1 µM; in data set [2], 2.9 µM; in data set [3] (setting [4]), 7.5 µM.
For `Cc1nocc1C(=O)Nc1ccc(-c2ccc(F)cc2)c(N)n1` [Example 40, N-[6-Amino-5-(4-fluorophenyl)pyridin-2-yl]-3-methylisoxazole-4-carboxamide], in that order: 20 µM, 31 µM and 30 µM.
For `Cn1nccc1C(=O)Nc1ccc(-c2cc(F)ccc2Cl)c(N)n1` [Example 6, N-[6-Amino-5-(2-chloro-5-fluorophenyl)pyridin-2-yl]-1-methyl-1H-pyrazole-5-carboxamide], in that order: 1.1 µM, 13 µM and 23 µM.
For `Cc1nocc1C(=O)Nc1ccc(-c2cc(OC(F)(F)F)ccc2F)c(N)n1` [Example 36, N-{6-Amino-5-[2-fluoro-5-(trifluoromethoxy)phenyl]pyridin-2-yl}-3-methylisoxazole-4-carboxamide], in that order: 1.3 µM, 6.4 µM and 2.2 µM.
`COc1cc(Cl)cc(-c2ccc(NC(=O)c3ccnn3C)nc2N)c1Cl` [Example 8, N-[6-Amino-5-(2,5-dichloro-3-methoxyphenyl)pyridin-2-yl]-1-methyl-1H-pyrazole-5-carboxamide]: the results for the IC50 in data set [1], in data set [2] and in data set [3] (setting [4]) were 1.6 µM, 20 µM and 7.6 µM, respectively.
For `Cc1nocc1C(=O)Nc1ccc(-c2cc(O)ccc2Cl)c(N)n1` [Example 175, N-[6-amino-5-(2-chloro-5-hydroxyphenyl)pyridin-2-yl]-3-methylisoxazole-4-carboxamide], in that order: 23 µM, greater than 32 µM and 20 µM.
For `COc1cc(Cl)c(Cl)c(-c2ccc(NC(=O)c3conc3C)nc2N)c1` [Example 29, N-[6-Amino-5-(2,3-dichloro-5-methoxyphenyl)pyridin-2-yl]-3-methylisoxazole-4-carboxamide], in that order: 0.55 µM, 6.4 µM and 8.2 µM.
For `COCc1cc(C(=O)Nc2ccc(-c3cc(F)ccc3Cl)c(N)n2)on1` [Example 96], in that order: 5.9 µM, 7.1 µM and 12 µM.
As to `COc1ccc(Cl)c(-c2ccc(NC(=O)c3cnnn3C)nc2N)c1` [Example 83, N-[6-Amino-5-(2-chloro-5-methoxyphenyl)pyridin-2-yl]-1-methyl-1H-1,2,3-triazole-5-carboxamide], the IC50 in data set [1] is 3.3 µM; in data set [2], 4.1 µM; in data set [3] (setting [4]), 12 µM.
For `Cc1nocc1C(=O)Nc1ccc(-c2ccccc2OC(F)(F)F)c(N)n1` [Example 43, N-{6-Amino-5-[2-(trifluoromethoxy)phenyl]pyridin-2-yl}-3-methylisoxazole-4-carboxamide], in that order: 0.32 µM, 12 µM and 10 µM.
For `Cc1nocc1C(=O)Nc1ccc(-c2ccccc2C(F)(F)F)c(N)n1` [Example 2, N-{6-Amino-5-[2-(trifluoromethyl)phenyl]pyridin-2-yl}-3-methylisoxazole-4-carboxamide], in that order: 1.7 µM, greater than 32 µM and 30 µM.
For `CC(C)n1nccc1C(=O)Nc1ccc(-c2cc(OC(F)(F)F)ccc2Cl)c(N)n1` [Example 69, N-{6-Amino-5-[2-chloro-5-(trifluoromethoxy)phenyl]pyridin-2-yl}-1-isopropyl-1H-pyrazole-5-carboxamide], in that order: 16 µM, 16 µM and 3.6 µM.
With `Cn1nccc1C(=O)Nc1ccc(-c2cc(Cl)ccc2Cl)c(N)n1` [Example 3, N-[6-Amino-5-(2,5-dichlorophenyl)pyridin-2-yl]-1-methyl-1H-pyrazole-5-carboxamide], the IC50 in data set [1] was determined as 0.9 µM; in data set [2] it was 15 µM; in data set [3] (setting [4]), 11 µM.
`Cn1nccc1C(=O)Nc1ccc(-c2ccccc2OC(F)(F)F)c(N)n1` [Example 11, N-{6-Amino-5-[2-(trifluoromethoxy)pheny]pyridin-2-yl}-1-methyl-1H-pyrazole-5-carboxamide]: the IC50 came to 2.4 µM in data set [1]; 18 µM in data set [2]; 11 µM in data set [3] (veratridine 50 μM opener, average of replicates, read-out: TTX-S IC50).
In the case of `CCn1nccc1C(=O)Nc1ccc(-c2ccc(F)cc2Cl)c(N)n1` [Example 55, N-[6-Amino-5-(2-chloro-4-fluorophenyl)pyridin-2-yl]-1-ethyl-1H-pyrazole-5-carboxamide], the results for the IC50 in data set [1], in data set [2] and in data set [3] (setting [4]) were 23 µM, greater than 32 µM and greater than 32 µM, respectively.
In the case of `Cn1nccc1C(=O)Nc1ccc(-c2ccc(OC(F)(F)F)cc2)c(N)n1` [Example 120], the IC50 in data set [1] was 12 µM; in data set [2], 10 µM; in data set [3] (setting [4]) it was 5.2 µM.
For the compound `Cn1nncc1C(=O)Nc1ccc(-c2ccccc2OC(F)(F)F)c(N)n1` [Example 85, N-{6-Amino-5-[2-(trifluoromethoxy)phenyl]pyridin-2-yl}-1-methyl-1H-1,2,3-triazole-5-carboxamide], the IC50 in data set [1] worked out at 7 µM; in data set [2], 31 µM; in data set [3] (setting [4]), 28 µM.
For `Cc1nocc1C(=O)Nc1ccc(-c2cc(F)ccc2Cl)c(N)n1` [Example 41, N-[6-Amino-5-(2-chloro-5-fluorophenyl)pyridin-2-yl]-3-methylisoxazole-4-carboxamide], in that order: 0.25 µM, 12 µM and 11 µM.
For `COc1cc(Cl)cc(-c2ccc(NC(=O)c3conc3C)nc2N)c1Cl` [Example 27, N-[6-Amino-5-(2,5-dichloro-3-methoxyphenyl)pyridin-2-yl]-3-methylisoxazole-4-carboxamide], in that order: 0.37 µM, 10 µM and 3.2 µM.
For `Cc1nocc1C(=O)Nc1ccc(-c2cc(Cl)cc(Cl)c2)c(N)n1` [Example 31, N-[6-Amino-5-(3,5-dichlorophenyl)pyridin-2-yl]-3-methylisoxazole-4-carboxamide], in that order: 3.9 µM, 30 µM and 20 µM.
As for `Cn1nncc1C(=O)Nc1ccc(-c2ccccc2Cl)c(N)n1` [Example 82, N-[6-Amino-5-(2-chlorophenyl)pyridin-2-yl]-1-methyl-1H-1,2,3-triazole-5-carboxamide], the IC50 in data set [1] is 9.3 µM; in data set [2] it was greater than 32 µM; in data set [3] (setting [4]) it was greater than 32 µM.

For the origin of these results see patent US8134007B2, “Pyridine derivatives” (Pfizer Inc., priority 2007, dated 2012).
